ChEMBL document CHEMBL1136317, “A general synthesis of 1-aryl carbamoyl-2-alkyl-4-aryl substituted semicarbazides as nonbasic factor Xa inhibitors” (Bioorg Med Chem Lett, 2003)

Target: Coagulation factor X (Homo sapiens, UniProt P00742)
Assay: Inhibitory activity against human Coagulation factor X in a purified enzyme system

Sequence of Coagulation factor X (P00742 41-179 limits assumed): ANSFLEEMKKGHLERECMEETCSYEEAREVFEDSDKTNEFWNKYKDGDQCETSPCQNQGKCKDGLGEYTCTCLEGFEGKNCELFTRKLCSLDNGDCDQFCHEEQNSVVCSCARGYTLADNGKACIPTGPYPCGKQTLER
Sequence of Coagulation factor X (P00742 235-488 limits assumed): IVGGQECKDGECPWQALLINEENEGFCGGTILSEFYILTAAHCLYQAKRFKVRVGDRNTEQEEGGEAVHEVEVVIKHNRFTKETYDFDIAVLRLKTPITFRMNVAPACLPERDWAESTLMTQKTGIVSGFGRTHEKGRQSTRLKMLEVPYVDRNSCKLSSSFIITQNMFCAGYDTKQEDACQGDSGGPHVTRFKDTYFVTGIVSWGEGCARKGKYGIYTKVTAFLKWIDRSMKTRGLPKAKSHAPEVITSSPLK

IC50 [nM] | SMILES
78 | CC(NC(=O)Nc1ccc(Cl)cc1)C(=O)Nc1ccc(N2CCOCC2=O)cc1 (single isomer, unassigned)
17 | CCC(NC(=O)Nc1ccc(Cl)cc1)C(=O)Nc1ccc(N2CCOCC2=O)cc1 (single isomer, unassigned)
